Test results from publication PMC3375280 (PLoS ONE, 2012).
Substitutions are numbered along the chain they refer to.

What was measured:
[1] = molecular target: T1, AT1 C76A/F110C/C289A mutant receptor (Rattus norvegicus, UniProt P25095, C289A/C76A/F110C); assay: competition binding, C76A/F110C/C289A mutant; details: for Kd ratio relative to WT (in parentheses): C76A/F110C/C289A / WT; for Kd: C76A/F110C/C289A, COS1 membranes, read-out: Binding affinity (Kd)
T1 construct: expressed in transfected cells; host or cells: COS1
T1 sequence (P25095 1-359 C76A/F110C/C289A): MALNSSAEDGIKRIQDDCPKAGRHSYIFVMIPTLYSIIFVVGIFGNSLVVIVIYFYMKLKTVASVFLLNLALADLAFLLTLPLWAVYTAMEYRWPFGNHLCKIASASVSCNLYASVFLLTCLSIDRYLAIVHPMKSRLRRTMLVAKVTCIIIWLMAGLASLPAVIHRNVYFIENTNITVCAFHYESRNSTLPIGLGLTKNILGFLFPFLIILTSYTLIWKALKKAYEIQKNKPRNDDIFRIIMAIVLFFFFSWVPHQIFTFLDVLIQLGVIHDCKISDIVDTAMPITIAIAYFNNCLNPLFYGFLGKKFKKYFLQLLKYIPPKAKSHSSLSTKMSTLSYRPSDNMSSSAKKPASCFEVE
Experimental: (§1) The Kd and Bmax values of receptor binding were determined by ^125I-[Sar^1, Ile^8] […] Membranes expressing the WT or mutant AT1 receptors were incubated with 100 pM ^125I-[Sar^1, Ile^8] […] The binding reaction was terminated by filtering the incubation mixture through Whatman GF/C glass filters, and the residues were extensively washed further with binding buffer. The bound ligand fraction was determined from the counts per minute (cpm) remaining on the membrane. Binding kinetics values were determined as previously described.

[2] = molecular target: T2, AT1 Y113F mutant receptor (Rattus norvegicus, UniProt P25095, Y113F); assay: competition binding, Y113F mutant; details: for Kd ratio relative to WT (in parentheses): Y113F / WT; for Kd: Y113F, COS1 membranes, read-out: Binding affinity (Kd)
T2 construct: expressed in transfected cells; host or cells: COS1
T2 sequence (P25095 1-359 Y113F): T1 sequence (P25095 1-359 C76A/F110C/C289A) with A76C, C110F, Y113F, A289C
Experimental: as §1

[3] = molecular target: T3, AT1 Y113A mutant receptor (Rattus norvegicus, UniProt P25095, Y113A); assay: competition binding, Y113A mutant; details: for Kd ratio relative to WT (in parentheses): Y113A / WT; for Kd: Y113A, COS1 membranes, read-out: Binding affinity (Kd)
T3 construct: expressed in transfected cells; host or cells: COS1
T3 sequence (P25095 1-359 Y113A): T1 sequence (P25095 1-359 C76A/F110C/C289A) with A76C, C110F, Y113A, A289C
Experimental: as §1

[4] = molecular target: T4, AT1 C76A/S107C/C289A mutant receptor (Rattus norvegicus, UniProt P25095, C289A/C76A/S107C); assay: competition binding, C76A/S107C/C289A mutant; details: for Kd ratio relative to WT (in parentheses): C76A/S107C/C289A / WT; for Kd: C76A/S107C/C289A, COS1 membranes, read-out: Binding affinity (Kd)
T4 construct: expressed in transfected cells; host or cells: COS1
T4 sequence (P25095 1-359 C76A/S107C/C289A): T1 sequence (P25095 1-359 C76A/F110C/C289A) with S107C, C110F
Experimental: as §1

[5] = molecular target: T5, AT1 S107A mutant receptor (Rattus norvegicus, UniProt P25095, S107A); assay: competition binding, S107A mutant; details: for Kd ratio relative to WT (in parentheses): S107A / WT; for Kd: S107A, COS1 membranes, read-out: Binding affinity (Kd)
T5 construct: expressed in transfected cells; host or cells: COS1
T5 sequence (P25095 1-359 S107A): T1 sequence (P25095 1-359 C76A/F110C/C289A) with A76C, S107A, C110F, A289C
Experimental: as §1

[6] = molecular target: T6, AT1 S105A mutant receptor (Rattus norvegicus, UniProt P25095, S105A); assay: competition binding, S105A mutant; details: for Kd: S105A (S105 in the source), COS1 membranes, read-out: Binding affinity (Kd); for Kd ratio relative to WT (in parentheses): S105A / WT
T6 construct: expressed in transfected cells; host or cells: COS1
T6 sequence (P25095 1-359 S105A): T1 sequence (P25095 1-359 C76A/F110C/C289A) with A76C, S105A, C110F, A289C
Experimental: as §1

SMILES | Kd ratio relative to WT (in parentheses) [1] [fold] | Kd [1] [nM] | Kd ratio relative to WT (in parentheses) [2] [fold] | Kd ratio relative to WT (in parentheses) ([2]; listed as olmesartan) [fold] | Kd [2] [nM] | Kd ratio relative to WT (in parentheses) [3] [fold] | Kd [3] [nM] | Kd ratio relative to WT (in parentheses) [4] [fold] | Kd [4] [nM] | Kd ratio relative to WT (in parentheses) [5] [fold] | Kd [5] [nM] | Kd [6] [nM] | Kd ratio relative to WT (in parentheses) [6] [fold]
CCCc1nc(C(C)(C)O)c(C(=O)O)n1Cc1ccc(-c2ccccc2-c2nnn[nH]2)cc1 [Olmesartan, olmesartan, reference compound] | 2.9 | 6.6 ± 2.4 | 23 | > 10 | 52 ± 7 | 5.2 | 12 ± 3 | 2.7 | 6.2 ± 3.2 | 1.1 | 2.5 ± 0.5 | 6.7 ± 3.8 | –
CCCc1nc(C(C)(C)O)c(C(N)=O)n1Cc1ccc(-c2ccccc2-c2nnn[nH]2)cc1 [R239470] | 3.0 | 2.4 ± 1.1 | 21 | – | 17 ± 3 | 183 | 146 ± 15 | 2.3 | 1.8 ± 0.4 | 1.6 | 1.3 ± 0.2 | 3.2 ± 2 | 4.0
CCCc1nc(C(C)(C)O)c(C(N)=O)n1Cc1ccc(-c2cc(Cc3ccc(O)cc3)ccc2-c2nnn[nH]2)cc1 [R794847] | 2.6 | 126 ± 13 | 8.1 | – | 388 ± 54 | 38 | 1800 ± 205 | 2.1 | 102 ± 19 | 1.2 | 59 ± 27 | 37 ± 23 | 0.8
